# According to US20240417405A1, “Substituted Spiro Derivatives” (Janssen Pharmaceutica NV, priority 2021, published 2024):
# What was measured:
# [1] = molecular target: T1, menin/MLL (terbium chelate-labeled menin, FITC-MBM1 peptide) (Homo sapiens, UniProt O00255, T541A); test: Menin/MLL homogenous time-resolved fluorescence (HTRF) assay; type: binding; conditions: 30 min incubation
# T1 construct: Menin (a.a 1-610-6xhis tag)
# T1 sequence (O00255 with tags, fused parts or gaps T541A): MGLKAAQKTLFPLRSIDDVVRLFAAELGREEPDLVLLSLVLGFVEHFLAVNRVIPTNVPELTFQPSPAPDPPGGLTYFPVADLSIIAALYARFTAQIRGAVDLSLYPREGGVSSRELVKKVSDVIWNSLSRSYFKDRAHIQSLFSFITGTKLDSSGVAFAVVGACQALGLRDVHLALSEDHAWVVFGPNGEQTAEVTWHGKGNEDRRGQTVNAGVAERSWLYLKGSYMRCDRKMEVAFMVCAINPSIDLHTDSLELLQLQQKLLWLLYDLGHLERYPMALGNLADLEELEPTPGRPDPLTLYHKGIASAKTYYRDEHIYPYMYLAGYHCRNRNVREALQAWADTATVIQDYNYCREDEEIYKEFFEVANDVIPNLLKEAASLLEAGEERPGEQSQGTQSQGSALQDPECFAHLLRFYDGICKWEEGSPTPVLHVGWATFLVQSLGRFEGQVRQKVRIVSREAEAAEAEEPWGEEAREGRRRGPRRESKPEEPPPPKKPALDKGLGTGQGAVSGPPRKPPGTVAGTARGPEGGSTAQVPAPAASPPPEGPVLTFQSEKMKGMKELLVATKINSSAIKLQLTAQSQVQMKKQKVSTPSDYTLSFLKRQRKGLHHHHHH
# Procedure, shortened: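 Percent inhibition, calculated from the 520/490 nm HTRF ratio against high and low controls, was fitted for IC50 with a 0.1 nM detection limit. Reactions held 200 pM Tb-menin and 75 nM FITC-MBM1 in pH 7.5 Tris buffer with 0.5% DMSO.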
# KO-52 cells = test: Proliferation assay, spheroid-like growth, KO-52 (MLL wildtype control cell line); type: cell-based, human; conditions: Homo sapiens, 192 h, KO-52 control cells, 8 days, confluence as measure of spheroid size; read-out: spheroid assay_OneTime KO-52 IC50
# Procedure, shortened: (§1)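 Seed cells at linear-growth densities in low-attachment wells; add test compound at several concentrations, normalized to 0.3% DMSO; incubate 8 days at 37 °C; image spheroids and measure confluence; calculate absolute IC50 against DMSO and reference-compound controls.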
# MOLM14 cells = test: Proliferation assay, spheroid-like growth, MOLM14 (MLL-AF9 rearranged); type: cell-based, human; conditions: Homo sapiens, MOLM-14, 192 h, 8 days, confluence as measure of spheroid size, read-out: spheroid assay_OneTime MOLM14 IC50
# Procedure, shortened: as §1
Compound,IC50 [1] [µM],IC50 (MOLM14 cells) [µM],IC50 (KO-52 cells) [µM]
"CC(C)[C@H]([C@H]1C[C@@H](NC(=O)C2(F)CC2)C1)N1CC2(CCN(c3ncnnc3Oc3ccc(F)cc3-c3n[nH]c(=O)cc3C3CC3)C2)C1 (single isomer, unassigned) [Compound 311]",0.0003,0.052,9.99
"CC(=O)N[C@H]1C[C@@H]([C@@H](C(C)C)N2CC3(CCN(c4ncnnc4Oc4ccc(F)cc4-c4cnccc4C4CC4)C3)C2)C1 (single isomer, unassigned) [Compound 312]",0.0002,0.005,1.27
"CC(C)[C@H]([C@H]1C[C@]2(CCC(=O)N2)C1)N1CC2(CCN(c3ncnnc3Oc3ccc(F)cc3-c3cncnc3C3CC3)C2)C1 (single isomer, unassigned) [Compound 313]",0.0434,> 0.94,> 15
"CC(C)[C@H]([C@H]1C[C@]2(COC(=O)N2)C1)N1CC2(CCN(c3ncnnc3Oc3ccc(F)cc3-c3cncnc3C3CC3)C2)C1 (single isomer, unassigned) [Compound 319]",0.0237,> 0.94,> 15
"CC(C)[C@H]([C@H]1C[C@]2(COC(=O)N2)C1)N1CC2(CCN(c3ncnnc3Oc3ccc(F)cc3-c3ncccc3C3CC3)C2)C1 (single isomer, unassigned) [Compound 321]",0.0911,> 0.94,> 15
"CC(C)[C@@H]([C@H]1C[C@]2(COC(=O)N2)C1)N1CC2(CCN(c3ncnnc3Oc3ccc(F)cc3-c3ncccc3C3CC3)C2)C1 (single isomer, unassigned) [Compound 322]",0.0003,0.03,> 15
"CC(C)[C@@H]([C@H]1C[C@]2(COC(=O)N2)C1)N1CC2(CCN(c3ncnnc3Oc3ccc(F)cc3-c3nnccc3C3CC3)C2)C1 (single isomer, unassigned) [Compound 324]",0.117,> 0.94,> 15
"COC1(C(=O)N[C@H]2C[C@@H]([C@@H](C(C)C)N3CC4(CCN(c5ncnnc5Oc5ccc(F)cc5-c5cncnc5C5CC5)C4)C3)C2)CC1 (single isomer, unassigned) [Compound 330]",0.0004,0.13,5.9
"CO[C@H]1CCN([C@H]2C[C@@H](C(C(C)C)N3CC4(CCN(c5ncnnc5Oc5ccc(F)cc5-c5nnccc5C5CC5)C4)C3)C2)C1 (single isomer, unassigned) [Compound 331]",0.0002,0.003,2.85
"Fc1ccc(Oc2nncnc2N2CCC3(C2)CN([C@H](C2CCN(CC4COC4)CC2)C24CC(C2)C4)C3)c(-c2cncnc2C2CC2)c1 (single isomer, unassigned) [Compound 335]",0.0002,0.03,3.24
"Fc1ccc(Oc2nncnc2N2CCC3(C2)CN([C@@H](C2CCN(CC4COC4)CC2)C24CC(C2)C4)C3)c(-c2cncnc2C2CC2)c1 (single isomer, unassigned) [Compound 336]",0.0006,0.18,7.65
"O=c1cc(C2CC2)c(-c2cc(F)ccc2Oc2nncnc2N2CCC3(C2)CN([C@@H](C2CCN(CC4COC4)CC2)C24CC(C2)C4)C3)n[nH]1 (single isomer, unassigned) [Compound 339]",0.0004,> 0.94,> 15
"CS(=O)(=O)C1CCN([C@H]2C[C@@H]([C@@H](N3CC4(CCN(c5ncnnc5Oc5ccc(F)cc5-c5cncnc5C5CC5)C4)C3)C34CC(C3)C4)C2)CC1 (single isomer, unassigned) [Compound 341]",0.003,> 0.94,> 15
"CC(=O)N[C@H]1C[C@@H]([C@H](N2CC3(CCN(c4ncnnc4Oc4ccc(F)cc4-c4cncnc4C4CC4)C3)C2)C23CC(C2)C3)C1 (single isomer, unassigned) [Compound 342]",0.0003,0.082,5.84
"CC(=O)N[C@H]1C[C@@H]([C@@H](C(C)C)N2CC3(CCN(c4ncnnc4Oc4ccc(F)cc4-c4cnc(C#N)nc4C4CC4)C3)C2)C1 (single isomer, unassigned) [Compound 343]",0.0002,0.015,1.14
"CC(C)[C@H]([C@H]1C[C@H](N2CCC2)C1)N1CC2(CCN(c3ncnnc3Oc3ccc(F)cc3-c3cncnc3C3CC3)C2)C1 (single isomer, unassigned) [Compound 345]",0.001,0.055,7.4
"CC(C)[C@@H]([C@H]1C[C@H](N2CCC2)C1)N1CC2(CCN(c3ncnnc3Oc3ccc(F)cc3-c3cncnc3C3CC3)C2)C1 (single isomer, unassigned) [Compound 346]",0.0023,0.7,> 15
"CC(C)[C@H]([C@H]1C[C@@H](N(C)CCC(=O)N(C)C)C1)N1CC2(CCN(c3ncnnc3Oc3ccc(F)cc3-c3cncnc3C3CC3)C2)C1 (single isomer, unassigned) [Compound 348]",0.0002,0.004,10.2
"CC(C)[C@H](C1CN(CC2COC2)C1)N1CC2(CCN(c3ncnnc3Oc3ccc(F)cc3-c3cncnc3C3CC3)C2)C1 (single isomer, unassigned) [Compound 354]",0.0074,2.43,> 15
"CCC(=O)N[C@H]1C[C@@H]([C@@H](C(C)C)N2CC3(CCN(c4ncnnc4Oc4ccc(F)cc4-c4cncnc4C4CC4)C3)C2)C1 (single isomer, unassigned) [Compound 356]",0.0003,0.011,> 15

# The next compounds have a lower IC50 [1] than those just listed; values first:
IC50 [1] [µM],IC50 (MOLM14 cells) [µM],Compound,IC50 (KO-52 cells) [µM]
0.0001,0.018,"CC(C)[C@H]([C@H]1C[C@@H](N2CC3(CCN(C)C3=O)C2)C1)N1CC2(CCN(c3ncnnc3Oc3ccc(F)cc3-c3cncnc3C3CC3)C2)C1 (single isomer, unassigned) [Compound 315]",1.96
0.0001,0.026,"CC(C)[C@H]([C@H]1C[C@@H](N2CC3(COC(=O)N3)C2)C1)N1CC2(CCN(c3ncnnc3Oc3ccc(F)cc3-c3cncnc3C3CC3)C2)C1 (single isomer, unassigned) [Compound 318]",6.9
0.0001,0.028,"CC(C)[C@@H]([C@H]1C[C@]2(COC(=O)N2)C1)N1CC2(CCN(c3ncnnc3Oc3ccc(F)cc3-c3cncnc3C3CC3)C2)C1 (single isomer, unassigned) [Compound 320]",4.6
0.0001,0.004,"CC(C)[C@H]([C@H]1C[C@@H](N2CCC3(COC3)C2)C1)N1CC2(CCN(c3ncnnc3Oc3ccc(F)cc3-c3cncnc3C3CC3)C2)C1 (single isomer, unassigned) [Compound 325]",4.98
0.0001,0.038,"CC(C)[C@H](C1CCN(CC2COC2)CC1)N1CC2(CCN(c3ncnnc3Oc3ccc(F)cc3-c3cnc(C#N)nc3C3CC3)C2)C1 (single isomer, unassigned) [Compound 333]",0.82
0.0001,0.054,"CC(C)[C@@H]([C@H]1CC[C@@H](NC(=O)C2CC2)C1)N1CC2(CCN(c3ncnnc3Oc3ccc(F)cc3-c3cncnc3C3CC3)C2)C1 (single isomer, unassigned) [Compound 344]",1.59
0.0001,0.02,"CC(C)[C@H](C1CCN(C[C@H]2C[C@@](C)(O)C2)CC1)N1CC2(CCN(c3ncnnc3Oc3ccc(F)cc3-c3cccnc3C3CC3)C2)C1 (single isomer, unassigned) [Compound 351]",1.1
0.0001,0.045,"CC(C)[C@H](C1CCN(C[C@H]2C[C@@H](O)C2)CC1)N1CC2(CCN(c3ncnnc3Oc3ccc(F)cc3-c3cncnc3C3CC3)C2)C1 (single isomer, unassigned) [Compound 357]",9.79
0.0001,0.023,"CC(C)[C@H](C1CCN(C[C@H]2C[C@H](O)C2)CC1)N1CC2(CCN(c3ncnnc3Oc3ccc(F)cc3-c3cncnc3C3CC3)C2)C1 (single isomer, unassigned) [Compound 358]",2.21
